# Source: PMC10683025, “Discovery of a Hydroxylamine-Based Brain-Penetrant EGFR Inhibitor for Metastatic Non-Small-Cell Lung Cancer” (Journal of Medicinal Chemistry, 2023)
# Where two headings read alike, the source gives them in different places.
# Tests used:
# [1] = tested on: NCI-H3255 (EGFR mutation = L858R); assay: CellTiter-Glo cell viability assay; type: cell-based, human; settings: NCI-H3255; for IC50: Homo sapiens, 72 h, unadjusted for FBS
# Description: (§2) The NCI-H3255 cell line was obtained from CoBioer. […] NCI-H3255 cells were cultured in BEGM (Lonza) with 10% FBS. […] All cells were cultured in a humidified incubator with 5% CO2 at 37 °C.
# (§3) Viability assays using A431, HCC827, NCI-H1975, NCI-H3255, Ba/F3 EGFR-del E746_A750/C797S, Ba/F3 EGFR-L858R/C797S, AU565, SK-BR-3, and ZR-75-30 cells were performed at Crown BioScience.
# Caco-2 permeability = type: in vitro ADME; settings: human; for recovery at 2 h, 5 μM: Caco-2, Caco-2
# Description: A 96-well HTS Transwell plate (Corning) was used for Caco-2 and MDCKII-MDR1 cell seeding. […] Plates were incubated at 37 °C for 2 h, and samples (50 μL) were taken at the beginning and end of the incubation in both the donor and acceptor wells with the assay run in duplicate (n = 2). Samples were analyzed by LC-MS/MS.
# The efflux ratio was determined by using the following equation: [drawing 4] where Papp (B–A) indicates the apparent permeability in the basolateral to apical direction and Papp (A–B) indicates the apparent permeability in the apical to basolateral direction.
# Solubility assay = type: physicochemical; settings: buffer; for solubility kinetic at 2 h: pH 7.4, aqueous buffer, read-out: Aq. Sol.; for solubility at 2 h: read-out: Aq. Solubility
# Description: Solubility was determined by Pharmaron, Inc. and each compound was assessed in duplicate (n = 2) by adding 15 μL of compound stock solution (10 mM in DMSO) into a 96-well plate along with 485 μL of buffer followed by shaking at 25 °C, 1100 rpm for 2 h. Wells were filtered, and samples (5 μL) were taken followed by dilution with an equal volume of DMSO (5 μL) and 490 μL of aqueous solution. Samples were analyzed by LC-MS/MS.
# hERG = molecular target: T1, hERG (Homo sapiens, UniProt Q12809); assay: hERG manual patch clamp in HEK293; type: cell-based; settings: for IC50: human, HEK293 cells stably transfected with hERG, HEK 293 (+hERG), manual patch clamp
# T1 construct: host or cells: HEK293
# T1 sequence (Q12809 whole entry): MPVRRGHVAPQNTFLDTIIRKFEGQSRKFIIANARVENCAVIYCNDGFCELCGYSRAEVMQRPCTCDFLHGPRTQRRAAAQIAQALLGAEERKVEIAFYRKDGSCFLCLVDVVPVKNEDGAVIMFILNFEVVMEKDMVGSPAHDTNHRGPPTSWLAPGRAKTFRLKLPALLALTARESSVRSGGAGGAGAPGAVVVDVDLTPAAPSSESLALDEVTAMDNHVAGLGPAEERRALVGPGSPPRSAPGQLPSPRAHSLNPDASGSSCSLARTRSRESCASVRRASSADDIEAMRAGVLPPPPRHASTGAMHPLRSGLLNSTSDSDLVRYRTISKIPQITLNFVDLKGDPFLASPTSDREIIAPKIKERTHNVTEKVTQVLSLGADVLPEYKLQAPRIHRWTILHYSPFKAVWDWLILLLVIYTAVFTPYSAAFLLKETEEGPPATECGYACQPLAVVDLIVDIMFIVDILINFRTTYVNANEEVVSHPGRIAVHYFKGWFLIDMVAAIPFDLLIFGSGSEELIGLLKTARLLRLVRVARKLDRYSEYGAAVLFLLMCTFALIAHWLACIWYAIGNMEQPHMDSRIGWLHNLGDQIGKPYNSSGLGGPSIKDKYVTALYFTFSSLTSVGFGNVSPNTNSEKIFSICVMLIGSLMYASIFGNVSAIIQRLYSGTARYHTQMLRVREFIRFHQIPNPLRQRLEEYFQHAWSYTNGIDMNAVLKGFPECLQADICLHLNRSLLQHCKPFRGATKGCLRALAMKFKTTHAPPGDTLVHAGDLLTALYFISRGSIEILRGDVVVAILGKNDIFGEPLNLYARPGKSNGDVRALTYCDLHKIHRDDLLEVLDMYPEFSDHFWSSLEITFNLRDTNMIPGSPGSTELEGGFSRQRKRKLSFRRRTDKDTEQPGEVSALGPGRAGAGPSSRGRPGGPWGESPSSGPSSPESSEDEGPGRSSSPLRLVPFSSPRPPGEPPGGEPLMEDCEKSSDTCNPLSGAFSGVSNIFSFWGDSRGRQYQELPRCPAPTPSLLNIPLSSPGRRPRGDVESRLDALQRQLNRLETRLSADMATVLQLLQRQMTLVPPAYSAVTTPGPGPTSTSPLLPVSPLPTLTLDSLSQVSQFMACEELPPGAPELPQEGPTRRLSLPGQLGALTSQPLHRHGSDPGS
# Pharmacokinetic study = type: in vivo, Sprague-Dawley rats
# Description: Animal experiments were performed at Pharmaron, Inc. and animal use was approved by Pharmaron’s Institutional Animal Care and Use Committee (IACUC) in Pharmaron (Pharmaron IACUC, Protocol #PK-M-07182022, #PK-R-06012022, and #ON-CELL-XEN-06012022) following the guidance of AAALAC. Six- to eight-week-old male Sprague-Dawley rats (approximately 200–300 g) obtained from Si Bei Fu Laboratory Animal Technology Co., six- to eight-week-old male CD1 mice (approximately 20–30 g) obtained from Si Bei Fu Laboratory Animal Technology Co., and six- to eight-week-old female BALB/c nude mice (approximately 20–30 g) obtained from Si Bei Fu Laboratory Animal Technology Co., were used in the pharmacokinetic studies. Six- to eight-week-old female BALB/c nude mice (approximately 18–22 g) obtained from Beijing Anikeeper Biotech Co., Ltd. were used in the intracranial PDX study. Animals were housed at 20–25 °C with humidity ranging from 40 to 70% relative humidity, were exposed to 12 h light and dark cycles, and were supplied with food and water ab libitum.
# Approximately 0.03 mL of blood was collected from the dorsal metatarsal vein (in the case of CD1 mice), 0.03 mL of blood from the orbit vein (in the case of BALB/c nude mice), or 0.2 mL of blood from the jugular vein (in the case of Sprague-Dawley rats) at each time point. Blood at each sampling point was transferred into a plastic micro centrifuge tube containing K2-EDTA, and collection tubes with blood samples and anticoagulant were inverted several times for proper mixing of the tube contents and placed on ice prior to centrifugation for plasma. Blood samples were centrifuged at 4 °C, 4000g for 5 min to obtain plasma. Samples were stored in a freezer at −75 °C prior to analysis. Concentrations of test articles in the plasma samples were determined using LC-MS/MS and WinNonlin 8.3 (Phoenix) was used for pharmacokinetic calculations. The values obtained were plotted on GraphPad Prism software and are presented as mean ± SD.
# EGFR del E746_A750 = molecular target: T2, EGFR del E746_A750 (Homo sapiens, UniProt P00533, DEL746-750); assay: KINOMEScan KdELECT Kd determination; type: binding
# T2 construct: purchased Eurofins DiscoverX (contract assay)
# T2 sequence (P00533 with tags, fused parts or gaps DEL746-750): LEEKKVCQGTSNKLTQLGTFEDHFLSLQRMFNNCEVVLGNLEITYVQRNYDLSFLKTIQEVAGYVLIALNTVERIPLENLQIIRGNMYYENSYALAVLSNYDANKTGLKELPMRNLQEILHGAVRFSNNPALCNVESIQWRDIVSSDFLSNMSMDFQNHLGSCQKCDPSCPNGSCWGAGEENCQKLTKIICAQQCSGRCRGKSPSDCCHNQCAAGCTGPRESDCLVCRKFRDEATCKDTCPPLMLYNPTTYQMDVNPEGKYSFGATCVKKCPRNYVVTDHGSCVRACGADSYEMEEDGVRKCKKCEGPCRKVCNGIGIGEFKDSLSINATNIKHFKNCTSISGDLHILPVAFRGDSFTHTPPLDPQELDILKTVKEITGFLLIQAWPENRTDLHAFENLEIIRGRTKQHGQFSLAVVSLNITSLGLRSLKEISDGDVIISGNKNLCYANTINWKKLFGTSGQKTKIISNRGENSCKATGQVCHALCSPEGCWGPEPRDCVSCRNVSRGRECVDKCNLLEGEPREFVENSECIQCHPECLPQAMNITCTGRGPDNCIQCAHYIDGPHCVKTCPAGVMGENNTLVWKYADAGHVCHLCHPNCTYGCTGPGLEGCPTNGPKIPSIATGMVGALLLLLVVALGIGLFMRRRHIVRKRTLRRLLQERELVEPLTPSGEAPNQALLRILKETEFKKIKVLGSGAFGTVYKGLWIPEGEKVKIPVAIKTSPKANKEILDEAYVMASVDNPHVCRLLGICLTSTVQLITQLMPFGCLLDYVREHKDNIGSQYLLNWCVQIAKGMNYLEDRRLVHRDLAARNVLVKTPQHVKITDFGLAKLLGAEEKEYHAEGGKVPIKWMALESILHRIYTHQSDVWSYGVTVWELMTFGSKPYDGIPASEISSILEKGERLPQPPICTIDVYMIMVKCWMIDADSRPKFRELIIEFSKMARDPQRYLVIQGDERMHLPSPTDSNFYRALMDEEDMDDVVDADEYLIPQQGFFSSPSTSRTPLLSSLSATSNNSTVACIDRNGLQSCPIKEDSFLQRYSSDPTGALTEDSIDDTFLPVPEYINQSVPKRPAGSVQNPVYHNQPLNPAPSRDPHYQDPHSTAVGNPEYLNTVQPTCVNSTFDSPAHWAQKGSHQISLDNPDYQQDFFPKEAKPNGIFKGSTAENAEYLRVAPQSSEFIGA
# Description: (§4) In vitro kinase activity (inhibitor binding constants (Kd) and biochemical inhibition (IC50’s)) were assessed by Eurofins DiscoverX (Kd determinations) and Eurofins Cerep (biochemical IC50 determinations).
# [2] = Metabolic stability in liver microsomes; type: in vitro ADME, Sprague-Dawley rat; settings: for half-life at 1 h, 1 µM / microsomal CLint at 1 h, 1 µM: Sprague-Dawley, rat, liver microsomes; for half-life at 1 h, 1 µM: read-out: LM t1/2; for microsomal CLint at 1 h, 1 µM: read-out: LMClint; for Remaining Percentage: rat LM
# Description: (§5) Microsome stability was assessed in duplicate (n = 2) in the presence and absence of nicotinamide adenine dinucleotide phosphate (NADPH) with liver microsomes (0.5 mg/mL) from human (BD Gentest) and Sprague-Dawley rats (BD Gentest). Compounds were incubated in liver microsomes at 1 μM and samples (30 μL) were taken at 0.5, 15, 30, 45, and 60 min time points for analysis by LC-MS/MS. Hepatocyte stability was assessed in duplicate (n = 2) at a working cell density of 0.5 × 10^6 cells/mL with hepatocytes from human (BiolVT), Sprague-Dawley rat (BiolVT), cynomolgus monkey (RILD) or beagle dog (BiolVT). […] The in vitro half-life and intrinsic clearances were determined as previously described.[76]
# (§6) In vitro half-life (in vitro t1/2) was determined from the slope value in [drawing 1] where k was determined by linear regression of the natural logarithm of the remaining percentage of the parent drug vs the incubation time curve.
# [3] = tested on: HCC827 (EGFR mutation = exon19del); assay: CellTiter-Glo cell viability assay; type: cell-based, human; settings: Homo sapiens, HCC827; 72 h, unadjusted for FBS
# Description: as §2, §3
# EGFRwt = molecular target: T3, EGFRwt (Homo sapiens, UniProt P00533); assay: KINOMEScan KdELECT Kd determination; type: binding; settings: wt; read-out: EGFR Kd
# T3 construct: purchased Eurofins DiscoverX (contract assay)
# T3 sequence (P00533 25-1210): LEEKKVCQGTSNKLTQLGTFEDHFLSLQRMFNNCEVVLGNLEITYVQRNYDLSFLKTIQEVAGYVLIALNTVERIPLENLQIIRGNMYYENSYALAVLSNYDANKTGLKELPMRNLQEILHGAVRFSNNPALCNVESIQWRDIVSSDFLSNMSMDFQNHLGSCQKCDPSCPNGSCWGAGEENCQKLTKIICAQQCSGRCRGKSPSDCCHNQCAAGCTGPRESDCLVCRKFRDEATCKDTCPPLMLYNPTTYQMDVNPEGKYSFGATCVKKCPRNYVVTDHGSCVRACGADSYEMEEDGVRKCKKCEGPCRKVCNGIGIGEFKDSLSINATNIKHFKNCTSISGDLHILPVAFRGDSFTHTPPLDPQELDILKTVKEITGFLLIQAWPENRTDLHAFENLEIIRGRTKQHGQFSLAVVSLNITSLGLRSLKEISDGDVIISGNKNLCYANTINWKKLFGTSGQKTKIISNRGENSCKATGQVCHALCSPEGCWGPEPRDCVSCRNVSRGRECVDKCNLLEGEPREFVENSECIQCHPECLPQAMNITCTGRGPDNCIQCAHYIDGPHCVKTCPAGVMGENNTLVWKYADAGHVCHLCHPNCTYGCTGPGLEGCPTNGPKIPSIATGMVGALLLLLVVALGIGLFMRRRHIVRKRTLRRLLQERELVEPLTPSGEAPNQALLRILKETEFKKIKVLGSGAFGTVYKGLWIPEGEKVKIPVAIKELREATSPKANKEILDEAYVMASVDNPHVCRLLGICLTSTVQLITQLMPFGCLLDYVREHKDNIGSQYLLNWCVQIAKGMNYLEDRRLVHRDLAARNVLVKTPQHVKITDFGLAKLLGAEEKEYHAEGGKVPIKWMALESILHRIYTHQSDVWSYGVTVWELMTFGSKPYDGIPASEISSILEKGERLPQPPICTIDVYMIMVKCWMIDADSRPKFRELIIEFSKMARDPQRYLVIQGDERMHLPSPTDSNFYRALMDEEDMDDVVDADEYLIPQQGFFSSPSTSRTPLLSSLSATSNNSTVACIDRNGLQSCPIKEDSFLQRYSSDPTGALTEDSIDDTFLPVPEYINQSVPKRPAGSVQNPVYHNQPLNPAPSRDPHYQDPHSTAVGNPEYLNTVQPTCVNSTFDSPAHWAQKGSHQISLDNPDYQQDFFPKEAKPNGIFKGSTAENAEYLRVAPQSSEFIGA
# Description: as §4
# [4] = Plasma protein binding by equilibrium dialysis; type: in vitro ADME
# Description: (§1) Plasma protein binding and brain tissue binding were determined by Pharmaron, Inc. using the equilibrium dialysis method. […] Following incubation, the samples were analyzed by LC-MS/MS and the concentrations of the compounds were determined in the buffer and plasma solution chambers.
# [5] = Metabolic stability in hepatocytes; type: in vitro ADME, human; settings: for Remaining Percentages: human hepatocytes; for hepatocyte CLint at 2 h, 1 µM / half-life at 2 h, 1 µM: human, hepatocytes; for half-life at 2 h, 1 µM: read-out: HEP t1/2
# Description: as §5, §6
# [6] = Brain tissue binding by equilibrium dialysis; type: in vitro ADME; settings: rat; for recovery at 6 h, 5 μM: Sprague-Dawley (SD); for fraction unbound at 6 h, 5 μM / remaining at 6 h, 5 μM: Sprague-Dawley
# Description: as §1
# EGFRL858R = EGFRL858R (Homo sapiens, UniProt P00533, L858R); assay: KinaseProfiler enzymatic radiometric assay; type: biochemical; design: purchased Eurofins Cerep (KinaseProfiler, contract assay); settings: ATP 10 μM, read-out: EGFR IC50
# Chain of EGFRL858R (P00533 25-1210 L858R): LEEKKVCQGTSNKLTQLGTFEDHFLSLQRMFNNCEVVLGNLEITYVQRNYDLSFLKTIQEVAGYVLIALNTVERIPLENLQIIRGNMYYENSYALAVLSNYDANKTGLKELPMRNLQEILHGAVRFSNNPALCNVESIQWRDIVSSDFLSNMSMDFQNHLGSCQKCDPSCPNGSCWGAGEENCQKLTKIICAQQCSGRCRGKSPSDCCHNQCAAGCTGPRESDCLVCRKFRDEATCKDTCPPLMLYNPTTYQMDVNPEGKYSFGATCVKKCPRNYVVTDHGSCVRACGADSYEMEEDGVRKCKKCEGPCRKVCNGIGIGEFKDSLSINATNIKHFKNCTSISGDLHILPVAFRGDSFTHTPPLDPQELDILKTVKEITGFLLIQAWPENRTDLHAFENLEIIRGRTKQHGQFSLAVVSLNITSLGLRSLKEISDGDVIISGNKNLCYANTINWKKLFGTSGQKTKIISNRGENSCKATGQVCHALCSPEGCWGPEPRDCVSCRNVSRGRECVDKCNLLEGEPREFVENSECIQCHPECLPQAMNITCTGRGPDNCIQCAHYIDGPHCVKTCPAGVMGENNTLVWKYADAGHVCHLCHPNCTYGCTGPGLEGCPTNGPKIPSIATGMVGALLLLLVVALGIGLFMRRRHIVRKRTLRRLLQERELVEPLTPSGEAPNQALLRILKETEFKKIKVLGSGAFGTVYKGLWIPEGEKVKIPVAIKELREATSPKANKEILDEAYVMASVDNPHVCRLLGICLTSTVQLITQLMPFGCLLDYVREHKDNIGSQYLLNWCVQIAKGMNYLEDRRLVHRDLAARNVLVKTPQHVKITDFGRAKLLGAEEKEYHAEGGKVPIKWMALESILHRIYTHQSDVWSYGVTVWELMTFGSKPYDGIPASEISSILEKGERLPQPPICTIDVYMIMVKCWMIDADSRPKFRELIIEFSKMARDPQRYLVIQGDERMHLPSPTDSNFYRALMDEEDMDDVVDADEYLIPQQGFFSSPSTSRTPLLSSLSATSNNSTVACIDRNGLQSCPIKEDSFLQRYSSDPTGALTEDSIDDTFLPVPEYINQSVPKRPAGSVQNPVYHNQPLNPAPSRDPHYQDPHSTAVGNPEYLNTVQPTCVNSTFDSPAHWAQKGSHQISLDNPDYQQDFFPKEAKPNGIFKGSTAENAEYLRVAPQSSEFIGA
# Description: as §4
# [7] = Lipophilicity, shake-flask; type: physicochemical; settings: 1-octanol/PBS; 1-octanol and PBS (pH 7.4); read-out: logD7.4
# Description: Compound lipophilicity was determined by Pharmaron, Inc. using the shake-flask method with 1-octanol and PBS (pH 7.4). Each compound was assessed in duplicate (n = 2) at 1 μM in a 96-well plate shaken at 25 °C and 2000 rpm for 2 h. Samples were analyzed by liquid chromatography and tandem mass spectrometry (LC-MS/MS).
# [8] = male, Sprague-Dawley, plasma, rat, 1 mg/kg IV and 5 mg/kg PO dosing (route of value not stated)
# [9] = Sprague-Dawley, rat, plasma, 5 μM, read-out: fu,plasma% / %Unbound
# [10] = Sprague-Dawley, rat, rat plasma
# [11] = Sprague-Dawley, rat, rat plasma, read-out: %Bound (converted)
# [12] = human, human plasma, read-out: fu,plasma% / %Unbound (converted)
# [13] = plasma, human, 5 μM, read-out: fu,plasma% / %Unbound (converted)
# [14] = brain homogenate, read-out: fu,brain% / %Unboundbrain
# [15] = rat brain homogenate, read-out: %Boundbrain (converted)
# [16] = male, Sprague-Dawley, plasma, Rat 2 mg/kg (IV)
# [17] = male, Sprague-Dawley, plasma, Rat 20 mg/kg (PO)
compound,measurement,setting,value
"COc1cc2ncnc(Nc3cccc(Cl)c3F)c2cc1OCCON1CCOCC1 [Compound 7, N-(3-Chloro-2-fluorophenyl)-7-methoxy-6-(2-(morpholinooxy)ethoxy)quinazolin-4-amine]",IC50,[1],17 nM
same,"efflux ratio at 2 h, 5 µM",Caco-2 permeability; Caco-2,1
same,"recovery at 2 h, 5 μM",Caco-2 permeability; read-out: Recovery% (AP-BL),72.9%
same,"recovery at 2 h, 5 μM",Caco-2 permeability; read-out: Recovery% (BL-AP),72.2%
same,"Papp A→B at 2 h, 5 µM",Caco-2 permeability; Caco-2,10.9 ×10⁻⁶ cm/s
same,"Papp A→B at 2 h, 5 μM",Caco-2 permeability; Caco-2,10.9 ×10⁻⁶ cm/s
same,"Papp B→A at 2 h, 5 µM",Caco-2 permeability; Caco-2,10.8 ×10⁻⁶ cm/s
same,"Papp B→A at 2 h, 5 μM",Caco-2 permeability; Caco-2,10.8 ×10⁻⁶ cm/s
same,solubility kinetic at 2 h,Solubility assay,36 µM
same,IC50,hERG,8480 ± 3500 nM
same,AUC(0-inf) at 24 h,Pharmacokinetic study; [8],89 ng·h/mL
same,half-life at 24 h,Pharmacokinetic study; [8],0.56 h
same,Kd,EGFR del E746_A750,< 0.2 nM
same,"half-life at 1 h, 1 µM",[2],0.167 h
same,"microsomal CLint at 1 h, 1 µM",[2],138 µL/min/mg
same,Remaining Percentage,"[2]; +Cofactors, 15 min",28.79%
same,Remaining Percentage,"[2]; +Cofactors, 30 min",12.97%
same,Remaining Percentage,"[2]; +Cofactors, 45 min",8.49%
same,Remaining Percentage,"[2]; +Cofactors, 60 min",5.84%
same,Remaining Percentage,"[2]; -Cofactors, 60 min",118.60%
same,IC50,[3],0.31 nM
same,Kd,EGFRwt,< 0.2 nM
same,"fraction unbound at 6 h, 5 μM",[4]; [9],0.105
same,"recovery at 6 h, 5 μM",[4]; [10],110%
same,"remaining at 6 h, 5 μM",[4]; [10],101%
same,"fraction unbound at 6 h, 5 μM",[4]; [11],0.105
same,"recovery at 6 h, 5 μM","[4]; human, human plasma",98.9%
same,"remaining at 6 h, 5 μM","[4]; human, human plasma",99.4%
same,"fraction unbound at 6 h, 5 μM",[4]; [12],0.0412
same,"fraction unbound at 6 h, 5 μM",[4]; [13],0.0412
same,Remaining Percentages,[5]; 15 min,96.13%
same,Remaining Percentages,[5]; 30 min,87.34%
same,Remaining Percentages,[5]; 60 min,76.27%
same,Remaining Percentages,[5]; 90 min,61.58%
same,Remaining Percentages,[5]; 120 min,45.68%
same,"hepatocyte CLint at 2 h, 1 µM",[5],13 µL/min/1e6 cells
same,"half-life at 2 h, 1 µM",[5],1.79 h
same,"recovery at 6 h, 5 μM",[6]; rat brain homogenate,94.7%
same,"fraction unbound at 6 h, 5 μM",[6]; [14],0.0478
same,"remaining at 6 h, 5 μM",[6]; rat brain homogenate,98.3%
same,"fraction unbound at 6 h, 5 μM",[6]; [15],0.0478
same,IC50,EGFRL858R,1 nM
same,"logD at 2 h, 1 µM",[7],3.4
"COc1cc2ncnc(Nc3cccc(Cl)c3F)c2cc1OCCON1CCN(C)CC1 [Compound 9, N-(3-Chloro-2-fluorophenyl)-7-methoxy-6-(2-((4-methylpiperazin-1-yl)oxy)ethoxy)quinazolin-4-amine]",IC50,[1],7.2 nM
same,improvement of IC50 over 6,[1],roughly 12 fold
same,"efflux ratio at 2 h, 5 µM",Caco-2 permeability; Caco-2,1.3
same,"efflux ratio at 2 h, 5 μM",Caco-2 permeability; Caco-2,1.32
same,"recovery at 2 h, 5 μM",Caco-2 permeability; read-out: Recovery% (AP-BL),53.9%
same,"recovery at 2 h, 5 μM",Caco-2 permeability; read-out: Recovery% (BL-AP),73.5%
same,"Papp A→B at 2 h, 5 µM",Caco-2 permeability; Caco-2,6.5 ×10⁻⁶ cm/s
same,"Papp A→B at 2 h, 5 μM",Caco-2 permeability; Caco-2,6.52 ×10⁻⁶ cm/s
same,"Papp B→A at 2 h, 5 µM",Caco-2 permeability; Caco-2,8.6 ×10⁻⁶ cm/s
same,"Papp B→A at 2 h, 5 μM",Caco-2 permeability; Caco-2,8.61 ×10⁻⁶ cm/s
same,solubility at 2 h,Solubility assay; pH 1.2,> 300 µM
same,solubility at 2 h,Solubility assay; pH 6.8,262 µM
same,solubility kinetic at 2 h,Solubility assay,199 µM
same,%hERG inhibition,hERG; 1 μM,17%
same,IC50,hERG,6480 nM
same,adverse events or signs of toxicity,Pharmacokinetic study; Sprague-Dawley rats at the tested PK doses,No adverse events or signs of toxicity were observed
same,clearance at 24 h,Pharmacokinetic study; [16],59.6 ± 22.2 mL/min/kg
same,half-life at 24 h,Pharmacokinetic study; [16],2.4 ± 1.07 h
same,Vd at 24 h,"Pharmacokinetic study; male, Sprague-Dawley, plasma, Rat 2 mg/kg (IV), read-out: Vss",6.67 L/kg
same,Cmax at 24 h,Pharmacokinetic study; [17],653 ± 106 nM
same,Tmax at 24 h,Pharmacokinetic study; [17],2 h
same,bioavailability at 24 h,Pharmacokinetic study; [17],64%
same,half-life at 24 h,Pharmacokinetic study; [17],2.37 h
same,AUC(0-inf) at 24 h,Pharmacokinetic study; [8],279 ng·h/mL
same,half-life at 24 h,Pharmacokinetic study; [8],2.29 h
same,AUC(0-inf),"Pharmacokinetic study; male, Sprague-Dawley, plasma, rat, 20 mg/kg PO",3910 ng·h/mL
same,Kd,EGFR del E746_A750,< 0.2 nM
same,"half-life at 1 h, 1 µM",[2],0.158 h
same,"microsomal CLint at 1 h, 1 µM",[2],146 µL/min/mg
same,Remaining Percentage,"[2]; +Cofactors, 15 min",34.07%
same,Remaining Percentage,"[2]; +Cofactors, 30 min",11.66%
same,Remaining Percentage,"[2]; +Cofactors, 45 min",6.01%
same,Remaining Percentage,"[2]; +Cofactors, 60 min",2.50%
same,Remaining Percentage,"[2]; -Cofactors, 60 min",113.38%
same,IC50,[3],3.1 nM
same,Kd,EGFRwt,< 0.2 nM
same,"fraction unbound at 6 h, 5 μM",[4]; [9],0.128
same,"recovery at 6 h, 5 μM",[4]; [10],106%
same,"remaining at 6 h, 5 μM",[4]; [10],99.6%
same,"fraction unbound at 6 h, 5 μM",[4]; [11],0.128
same,"recovery at 6 h, 5 μM","[4]; human, human plasma",101%
same,"remaining at 6 h, 5 μM","[4]; human, human plasma",102%
same,"fraction unbound at 6 h, 5 μM",[4]; [12],0.0442
same,"fraction unbound at 6 h, 5 µM","[4]; plasma, human, 5 μM, read-out: fu,plasma% / %Unbound",0.044
same,"fraction unbound at 6 h, 5 μM",[4]; [13],0.0442
same,"fu,plasma% / %Unbound","[4]; rat, 5 μM",12.75%
same,Remaining Percentages,[5]; 15 min,98.94%
same,Remaining Percentages,[5]; 30 min,89.67%
same,Remaining Percentages,[5]; 60 min,75.36%
same,Remaining Percentages,[5]; 90 min,58.28%
same,Remaining Percentages,[5]; 120 min,52.37%
same,"hepatocyte CLint at 2 h, 1 µM",[5],12 µL/min/1e6 cells
same,"half-life at 2 h, 1 µM",[5],1.95 h
same,"recovery at 6 h, 5 μM",[6]; rat brain homogenate,102%
same,"fraction unbound at 6 h, 5 μM",[6]; [14],0.0447
same,"remaining at 6 h, 5 μM",[6]; rat brain homogenate,94.7%
same,"fraction unbound at 6 h, 5 μM",[6]; [15],0.0447
same,"fraction unbound at 6 h, 5 µM",[6]; [14],0.045
same,IC50,EGFRL858R,2 nM
same,"logD at 2 h, 1 µM",[7],2.8
